Data: patent US20200306255A1, “COMPOSITIONS AND METHODS FOR TREATING NIEMANN PICK C DISEASE” (AI Therapeutics, Inc., priority 2016, published 2020)
pIC50: −log10 of the molar value.

Tests used:
NPC1 fibroblasts = test: HexB release lysosome exocytosis assay; assay type: cell-based, human; conditions: 24 hours treatment; FIG. 3
Description: NPC1 mutant patient skin fibroblasts have been used as a robust cellular model of NPC1 disease (Chen 2010, Xu M et al 2012, Xu M et al 2014) and these cells display a number of NPC-related defects including intracellular accumulation of cholesterol other lipids.
FIG. 3: the rate of lysosome exocytosis can be monitored by the measurement of the release of lysosomal proteins such as Hexosaminidase Subunit Beta(HexB). In FIG. 3, NPC1 fibroblasts were treated with apilimod for 24 hours, the HexB release lysosome exocytosis assay was performed as previously described (Xu et al 2012). The rate of HexB release from NPC1 was increased by apilimod treatment providing evidence for an increased rate of lysosome exocytosis likely leading to cholesterol lowering in NPC1 cells.
Shown in the figure are fluorescence microscopy images of the NPC1 cells treated with 0, 78, 156, and 625 nM apilimod. […] In FIG. 3, apilimod treatment of NPC1 fibroblasts can enhance the rate of lysosome exocytosis as one of the mechanisms for cells to clear lysosome storage of cholesterol and lipid accumulations in NPC.

[1] = plasma protein binding, human; assay type: in vitro ADME; conditions: read-out: bound to plasma proteins
Description: (§1) In embodiments, the apilimod compound for use in the compositions and methods of the invention is the free base or dimesylate salt form, MW 610.7 (dimesylate salt); tPSA 83.1; pKa 5.39 (±0.03), 4.54 (±0.27); HBD 1. […] In embodiments, the apilimod compound for use in the compositions and methods of the invention is an active metabolite of apilimod. Six primary metabolites were identified in rat and human microsomal and hepatocyte stability studies. […] Tmax generally occurred within 1 or 2 hours after the oral dose, consistent with the […] of this compound from the circulation. […] The primary metabolites are short-lived in circulation. Both apilimod free base and the dimesylate salt are highly bound (>99%) to rat, dog and human plasma proteins.

osteoclast formation = conditions: in vitro assay; from WO 2005/000404; read-out: inhibitory activity against osteoclast formation, IC50; cited from earlier work
[2] = plasma protein binding, dog; assay type: in vitro ADME; conditions: read-out: bound to plasma proteins
Description: as §1

[3] = plasma protein binding, rat; assay type: in vitro ADME
Description: as §1

CYP3A4 = CYP3A4 (Homo sapiens, UniProt P08684); test: reaction phenotyping studies, CYP3A4; assay type: in vitro ADME
Description: as §1

CYP3A4, sequence (P08684 whole entry): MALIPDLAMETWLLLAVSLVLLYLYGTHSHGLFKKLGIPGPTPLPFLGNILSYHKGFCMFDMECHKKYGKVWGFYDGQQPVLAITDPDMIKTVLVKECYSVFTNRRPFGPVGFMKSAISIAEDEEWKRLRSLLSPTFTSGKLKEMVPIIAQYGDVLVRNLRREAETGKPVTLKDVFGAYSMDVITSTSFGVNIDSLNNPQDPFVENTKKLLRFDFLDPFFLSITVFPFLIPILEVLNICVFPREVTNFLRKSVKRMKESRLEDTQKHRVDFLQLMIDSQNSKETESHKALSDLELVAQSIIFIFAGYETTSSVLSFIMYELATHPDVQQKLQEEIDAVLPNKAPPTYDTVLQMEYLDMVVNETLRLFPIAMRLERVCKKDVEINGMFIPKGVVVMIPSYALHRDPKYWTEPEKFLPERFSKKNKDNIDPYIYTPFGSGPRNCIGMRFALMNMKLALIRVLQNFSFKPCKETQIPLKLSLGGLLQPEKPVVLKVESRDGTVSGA

For Cc1cccc(/C=N/Nc2cc(N3CCOCC3)nc(OCCc3ccccn3)n2)c1 [apilimod], which “rate of HexB release (lysosome exocytosis)” value (NPC1 fibroblasts) is on record?
Its value is “increased”.

What about the fraction unbound [1] of the same compound?
Its fraction unbound is under 0.01.

And the pIC50 (osteoclast formation)?
The pIC50 was 7.82.

And the fraction unbound [2]?
Its fraction unbound is under 0.01.

And the fraction unbound [3]?
Its fraction unbound is under 0.01.

And the “contribution of CYP3A4 to metabolism” value (CYP3A4)?
Its value is “contribute to metabolism”.
